Results on one compound are retold here after publication PMC11111895, “Identification of a dCache-type chemoreceptor in Campylobacter jejuni that specifically mediates chemotaxis towards methyl pyruvate” (Frontiers in Microbiology, 2024).

Assay [1] addresses Tlp11-LBD homologue (WP_115570384.1, residues 34-332) (Helicobacter equorum, UniProt A0A3D8ITS8). The assay can be described thus: MST of Tlp11-LBD homologue. In kind it is binding. How it is done:
(§1) The His-tag dye (MO-L018 RED-tris-NTA, NanoTemper, Germany) was adjusted to a final concentration of 25 nM and used to label the purified protein with a His-tag. The compound was diluted to a series of concentrations in phosphate-buffered saline ([Duan et al., 2023]) with 0.05% Tween 20 (PBS-T) buffer and mixed in a ratio of 1:1 with protein. The mixtures were loaded into capillaries (Monolith™ Series capillaries, NanoTemper) by means of capillary action. Thermophoresis was measured using a Monolith™ NT.115 (NanoTemper) instrument, with 40% excitation and 40% MST power configuration. The time-traces of changes in fluorescence, which reflected the thermophoretic movement of labeled protein affected by different concentrations of compound were recorded, and the dose–response curves were fitted with the ‘temperature jump and thermophoresis’ mode. Data analysis was performed using MO. Affinity Analysis version 2.3 (NanoTemper) and Prism version 8.0.2 (GraphPad Software, United States).
(§2) To evaluate whether these potential Tlp11-LBD homologues could bind to methyl pyruvate, we conducted a structural analysis of the LBDs of six chemoreceptors from C. coli, H. equorum, H. himalayensis, H. mesocricetorum, H. ganmani, and C. upsaliensis using Alphafold 2. […]

Assay [2] deals with Tlp11-LBD homologue (WP_115552006.1, residues 31-329) (Helicobacter ganmani, UniProt A0A3D8IAJ9). The assay can be described thus: MST of Tlp11-LBD homologue. The format is binding. The note with it: H. ganmani LBD. How it is done: as §1, §2
Sequence of Tlp11-LBD homologue (WP_115552006.1, residues 31-329) (A0A3D8IAJ9 entry or part of it): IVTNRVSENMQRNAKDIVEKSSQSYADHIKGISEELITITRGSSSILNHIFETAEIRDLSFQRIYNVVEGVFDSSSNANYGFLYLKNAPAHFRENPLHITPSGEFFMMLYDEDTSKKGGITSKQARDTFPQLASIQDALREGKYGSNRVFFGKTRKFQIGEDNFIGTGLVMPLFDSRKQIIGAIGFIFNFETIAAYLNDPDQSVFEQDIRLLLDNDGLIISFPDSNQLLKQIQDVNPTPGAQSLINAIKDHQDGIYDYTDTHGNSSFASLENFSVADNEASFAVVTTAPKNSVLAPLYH
Another assay deals with C. jejuni ATCC 33560. The assay can be described thus: Growth curves in Minimal Essential Medium. Conditions: Minimal Essential Medium with fetal bovine serum, shaking; methyl pyruvate at concentrations above 1 mM. In kind it is cell-based, Campylobacter jejuni. How it is done:
The C. jejuni ATCC 33560, C. jejuni WT NCTC 11168 and 11168ΩTlp11 cells were grown on a MH agar plate overnight, at 37°C, under microaerobic conditions. The colonies were suspended in PBS ([Duan et al., 2023]), pH 7.2, inoculated into Minimal Essential Medium broth (Life Technologies) containing 10% fetal bovine serum to an initial OD600 of 0.01, and grown at 37°C, 100 rpm, under microaerobic conditions. When required, Minimal Essential Medium was supplemented with different concentrations of methyl pyruvate or pyruvate (both from Macklin, China).

The target in a further assay is Tlp11-LBD V318A. Nature of the assay: MST of Tlp11-LBD mutant V318A. In kind it is binding, C. jejuni ATCC 33560. The note with it: max ligand 2.5 mM. How it is done:
as §1
(§3) In order to confirm the contribution of L264, N268, I276, Y291, V318, and T320 to the binding to methyl pyruvate, we generated Tlp11-LBD proteins with an alanine point mutation at individual residues, to obtain the mutant proteins L264A, N268A, I276A, Y291A, V318A, and T320A, and then analyzed the binding affinities of methyl pyruvate to these mutants using MST. […]

The target of assay [3] is Tlp11-LBD homologue (WP_199770133.1, residues 31-330). Nature of the assay: MST of Tlp11-LBD homologue. The format is binding, Helicobacter mesocricetorum. The note with it: H. mesocricetorum LBD. How it is done:
as §1, §2

In another assay the target is Tlp11-LBD L264A. Nature of the assay: MST of Tlp11-LBD mutant L264A. Conditions: max ligand 2.5 mM. The format is binding, C. jejuni ATCC 33560. How it is done: as §1, §3
The target in the next assay is Tlp11-LBD T320A. The assay can be described thus: MST of Tlp11-LBD mutant T320A. In kind it is binding, C. jejuni ATCC 33560. Conditions: max ligand 2.5 mM. How it is done: as §1, §3

Sequence of Tlp11-LBD homologue (WP_115570384.1, residues 34-332) (A0A3D8ITS8 entry or part of it): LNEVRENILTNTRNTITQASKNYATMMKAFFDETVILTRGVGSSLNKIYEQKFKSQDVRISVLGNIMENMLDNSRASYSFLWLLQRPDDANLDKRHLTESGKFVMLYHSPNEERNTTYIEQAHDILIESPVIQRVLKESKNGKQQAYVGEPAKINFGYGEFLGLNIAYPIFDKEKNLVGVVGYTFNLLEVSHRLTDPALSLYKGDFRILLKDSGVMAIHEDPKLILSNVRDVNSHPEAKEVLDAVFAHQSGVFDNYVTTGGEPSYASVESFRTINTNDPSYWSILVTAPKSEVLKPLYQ

For the compound `COC(=O)C(C)=O` [methyl pyruvate, Methyl pyruvate], the Kd in assay [1] was determined as 340 ± 43 µM; in assay [2], 1600 ± 200 µM; in assay [3], 1200 ± 400 µM. Moreover, in the assay on C. jejuni ATCC 33560, the “effect on growth of C. jejuni ATCC 33560” value is listed as “significantly promoted the growth”. The “Kd (binding curve fit)” value at Tlp11-LBD V318A, on Tlp11-LBD L264A and on Tlp11-LBD T320A was “unable to obtain fitted Kd values” throughout.

A word on the Kd: it is a measure of binding affinity in units of concentration. Low values mean higher affinity, high ones lower affinity.
